Experimental data from ChEMBL document CHEMBL5113376, “Antimalarial application of quinones: A recent update” (Eur J Med Chem, 2021).
Converted amounts (≈) assume the structure as drawn. One block for each compound: values may come before it.

Key:
Plasmodium falciparum [1] = assay: Antimalarial activity against Plasmodium falciparum W2 by 96-well microtitre plate method based scintillation counting analysis; assay type: functional, organism-based
Plasmodium falciparum [2] = assay: Antiplasmodial activity against Plasmodium falciparum 3D7 infected in human erythrocytes assessed as growth inhibition; assay type: functional, organism-based; settings: 3D7, Erythrocyte
Plasmodium falciparum [3] = assay: Antimalarial activity against chloroquine sensitive Plasmodium falciparum RKL-2; assay type: functional, organism-based
Plasmodium falciparum [4] = assay: Antimalarial activity against chloroquine resistant Plasmodium falciparum RKL-9; assay type: functional, organism-based
Plasmodium falciparum [5] = assay: Antimalarial activity against Plasmodium falciparum by 96-well microtitre plate method based scintillation counting analysis; assay type: functional, organism-based
Plasmodium falciparum [6] = assay: Antimalarial activity against Plasmodium falciparum 3D7 measured after 24 hrs by hypoxanthine based scintillation counting analysis; assay type: functional; settings: read-out: ED50 (the source's name)
Plasmodium berghei [7] = assay: In vivo antiplasmodial activity against Plasmodium berghei infected in mouse assessed as reduction of parasitaemia at 50 mg/kg/day, ip for 4 days relative to control; assay type: functional; set-up: scale not given: the % may be the effect or the level left; settings: time 4 day
Plasmodium berghei [8] = assay: In vivo antiplasmodial activity against Plasmodium berghei infected in mouse assessed as reduction of parasitaemia at 100 mg/kg/day, po for 4 days relative to control; assay type: functional; set-up: scale not given: the % may be the effect or the level left; settings: time 4 day
Plasmodium berghei [9] = assay: In vivo antiplasmodial activity against Plasmodium berghei infected in mouse assessed as increase in mean survival time at 50 mg/kg/day, ip for 4 days (reference value: 4 to 6 days); assay type: functional; settings: time 4 day
Plasmodium falciparum [10] = assay: Antiplasmodial activity against Plasmodium falciparum K1; assay type: functional, organism-based
Plasmodium falciparum [11] = assay: Antimalarial activity against chloroquine sensitive Plasmodium falciparum RKL-2 by Giemsa staining method; assay type: functional, organism-based
Plasmodium falciparum [12] = assay: Antimalarial activity against chloroquine resistant Plasmodium falciparum RKL-9 by Giemsa staining method; assay type: functional, organism-based
Plasmodium falciparum [13] = assay: Antimalarial activity against Plasmodium falciparum Dd2 by H-hypoxanthine incorporation based assay; assay type: functional, organism-based
Plasmodium falciparum [14] = assay: Antimalarial activity against Plasmodium falciparum 3D7 by H-hypoxanthine incorporation based assay; assay type: functional, organism-based
Plasmodium berghei [15] = assay: Antimalarial activity against Plasmodium berghei; assay type: functional, organism-based
Plasmodium falciparum [16] = assay: Antimalarial activity against Plasmodium falciparum D6; assay type: functional, organism-based
Plasmodium falciparum [17] = assay: Antimalarial activity against Plasmodium falciparum W2; assay type: functional, organism-based
Plasmodium falciparum [18] = assay: Antimalarial activity against Plasmodium falciparum TM90C2B (2007); assay type: functional, organism-based
Plasmodium falciparum [19] = assay: Antimalarial activity against Plasmodium falciparum TM91C235; assay type: functional, organism-based
Plasmodium falciparum [20] = assay: Antimalarial activity against Plasmodium falciparum TM90C2B (1995); assay type: functional, organism-based
Plasmodium falciparum [21] = assay: Antimalarial activity against chloroquine resistant Plasmodium falciparum K1 incubated for 72 hrs by SYBR green staining based fluorescence reader method; assay type: functional, organism-based; settings: K1, 72 h
[22] = Selectivity index, ratio of CC50 for african green monkey Vero cells to IC50 for Chloroquine resistant Plasmodium falciparum K1; assay type: toxicity; settings: read-out: Ratio CC50/IC50
[23] = Cytotoxicity against African green monkey Vero cells; assay type: toxicity, cell-based; settings: chlorocebus sabaeus
Plasmodium falciparum [24] = assay: Antimalarial activity against chloroquine […] Plasmodium falciparum 3D7 incubated for 72 hrs by SYBR green staining based fluorescence reader method; assay type: functional, organism-based; settings: 3D7, 72 h
Plasmodium falciparum [25] = assay: Antimalarial activity against Plasmodium falciparum 3D7 assessed as inhibition of malarial growth by measuring dead rings/schizonts at 50 ug/ml relative to control; assay type: functional
Plasmodium falciparum [26] = assay: Antimalarial activity against Plasmodium falciparum RKL-2 assessed as inhibition of malarial growth by measuring dead rings/schizonts at 50 ug/ml relative to control; assay type: functional
Plasmodium falciparum [27] = assay: Antimalarial activity against Plasmodium falciparum RKL-2; assay type: functional, organism-based
Plasmodium falciparum [28] = assay: Antimalarial activity against Plasmodium falciparum 3D7; assay type: functional, organism-based
Plasmodium falciparum [29] = assay: In vivo antimalarial activity against Plasmodium falciparum 3D70087/N9 infected in humanized mouse model assessed as reduction in parasitemia administered orally for 4 days measured on day 7 relative to control; assay type: functional; set-up: scale not given: the % may be the effect or the level left; settings: route po; time 7 day
Plasmodium falciparum [30] = assay: Antimalarial activity against drug resistant Plasmodium falciparum K1; assay type: functional, organism-based
Plasmodium falciparum [31] = assay: Antimalarial activity against Plasmodium falciparum NF54 by 96-well microtitre plate method based scintillation counting analysis; assay type: functional, organism-based
Plasmodium falciparum [32] = assay: Potency index, ratio of chloroquine IC50 to compound IC50 for antimalarial activity against Plasmodium falciparum Dd2; assay type: functional
Plasmodium falciparum [33] = assay: Antimalarial activity against Plasmodium falciparum Dd2 by SYBR green method; assay type: functional, organism-based
Plasmodium berghei [34] = assay: In vivo antiplasmodial activity against Plasmodium berghei ANKA infected in CD-1 mouse assessed as decrease in parasitaemia at 50 mg/kg, ip measured after 7 days relative to control; assay type: functional; set-up: scale not given: the % may be the effect or the level left; settings: time 7 day
Plasmodium berghei [35] = assay: In vivo antiplasmodial activity against Plasmodium berghei ANKA infected in CD-1 mouse assessed as decrease in parasitaemia at 50 mg/kg, ip measured after 4 days relative to control; assay type: functional; set-up: scale not given: the % may be the effect or the level left; settings: time 4 day
[36] = Selectivity index, ratio of IC50 for human MDA-MB-231 cells to IC50 for Chloroquine resistant Plasmodium falciparum FCR-3; assay type: toxicity; settings: read-out: Ratio IC50
Plasmodium falciparum [37] = assay: Antiplasmodial activity against Chloroquine resistant plasmodium falciparum FCR-3; assay type: functional, organism-based
Plasmodium falciparum [38] = assay: Antimalarial activity against multi-drug resistant Plasmodium falciparum K1; assay type: functional, organism-based
Plasmodium falciparum [39] = assay: Antiplasmodial activity against Plasmodium falciparum W2 assessed as inhibition of parasite growth after 48 hrs by pLDH assay; assay type: functional, organism-based; settings: W2, 48 h

IC50 (Plasmodium falciparum [1]): 7.53 µg/mL (≈ 31.3 µM)
SMILES: C=C(C)C1CC2=C(O1)C(=O)c1ccccc1C2=O (stereo not drawn) [DEHYDROISO-ALPHA-LAPACHONE]

SMILES: COC1=C2C[C@@H](C)C[C@H](OC)[C@H](O)[C@@H](C)/C=C(\C)[C@H](OC(N)=O)[C@@H](OC)/C=C\C=C(/C)C(=O)NC(=CC1=O)C2=O [GELDANAMYCIN]
IC50 (Plasmodium falciparum [2]): 20 nM

SMILES: CCCNCc1cc(NC2=C(O)C(=O)c3ccccc3C2=O)ccc1O
IC50 (Plasmodium falciparum [3]): 0.453 µg/mL (≈ 1.29 µM) | IC50 (Plasmodium falciparum [4]): 2.92 µg/mL (≈ 8.29 µM)

IC50 (Plasmodium falciparum [5]): 3.29 µg/mL (≈ 8.79 µM)
SMILES: Cc1cc(O)c2c(c1)C(=O)C(c1c(C)cc3c(c1O)C(=O)C=CC3=O)=CC2=O [DIOSPYRIN]

EC50 (Plasmodium falciparum [6]): 0.537 µg/mL (≈ 1.02 µM)
SMILES: Cc1cc(O)c2c(c1)C(O)(c1ccc3c(c1O)C(=O)c1c(O)cc(C)c(O)c1C3=O)c1cccc(O)c1C2=O (stereo not given)

SMILES: O=C(O)c1cc2c(o1)C(=O)C1=C(C2=O)S(=O)(=O)C=CN1
Activity (Plasmodium berghei [7]): 85.7% | Activity (Plasmodium berghei [8]): 47% | Time (Plasmodium berghei [9]): 9 days | IC50 (Plasmodium falciparum [10]): 120 nM

SMILES: O=C1C(O)=C(NCCNc2ccnc3cc(Cl)ccc23)C(=O)c2ccccc21
IC50 (Plasmodium falciparum [11]): 0.391 µg/mL (≈ 0.993 µM) | IC50 (Plasmodium falciparum [12]): 0.684 µg/mL (≈ 1.74 µM)

IC50 (Plasmodium falciparum [13]): 69 nM | IC50 (Plasmodium falciparum [14]): 67 nM
SMILES: CC1=C(Cc2ccncc2)C(=O)c2ccccc2C1=O

IC50 (Plasmodium berghei [15]): 246 nM | IC50 (Plasmodium falciparum [16]): 73 nM | IC50 (Plasmodium falciparum [17]): 191 nM | IC50 (Plasmodium falciparum [18]): 193 nM | IC50 (Plasmodium falciparum [19]): 229 nM | IC50 (Plasmodium falciparum [20]): 234 nM
SMILES: CCCCCC[C@H](C)CC1=C(O)C(=O)c2c(C)cccc2C1=O

SMILES: O=C1C(O)=C(Nc2ccc(O)c(CN3CCOCC3)c2)C(=O)c2ccccc21
IC50 (Plasmodium falciparum [3]): 0.391 µg/mL (≈ 1.03 µM) | IC50 (Plasmodium falciparum [4]): 0.993 µg/mL (≈ 2.61 µM)

SMILES: Cc1cc(O)c2c(c1)C(=O)c1cc(O)c(CN3CCCCC3)c(O)c1C2=O
IC50 (Plasmodium falciparum [21]): 2280 nM | selectivity ratio [22]: 315 | CC50 [23]: 782000 nM | IC50 (Plasmodium falciparum [24]): 2740 nM

IC50 (Plasmodium falciparum [27]): 1390 nM | IC50 (Plasmodium falciparum [28]): 475 nM
SMILES: O=C1C(O)=C(C(Nc2cccc([N+](=O)[O-])c2)c2ccc([N+](=O)[O-])cc2)C(=O)c2ccccc21 (stereo not given)
inhibition at 50 µg/mL (Plasmodium falciparum [25]): 72.5% | inhibition at 50 µg/mL (Plasmodium falciparum [26]): 70%

SMILES: Cc1n(C(C)C)c2c([n+]1C(C)C)C(=O)c1ccccc1C2=O.[Br-]
Activity (Plasmodium falciparum [29]): 90%

SMILES: CCCn1c2c([n+](C(C)C)c1C)C(=O)c1ccccc1C2=O
IC50 (Plasmodium falciparum [30]): 3.2 nM

SMILES: COc1cc(O)c(-c2c(C)cc(O)c3c2C(=O)c2cccc(O)c2C3=O)c(O)c1C(C)=O [KNIPHOLONE]
IC50 (Plasmodium falciparum [31]): 1700 nM

IC50 (Plasmodium falciparum [33]): 42 nM
SMILES: CC1=C(Cc2ccc(NC(=O)OC(C)(C)C)cc2)C(=O)c2ccccc2C1=O
Ratio IC50 (Plasmodium falciparum [32]): 3 | Activity (Plasmodium berghei [34]): 81.8% | Activity (Plasmodium berghei [35]): 75.5%

SMILES: CC(C)=CCC/C(=C/CC/C(C)=C/CCc1ccc2c(c1)C(=O)C=C(C)C2=O)C(=O)O
selectivity ratio [36]: 443 | IC50 (Plasmodium falciparum [37]): 5400 nM

IC50 (Plasmodium falciparum [27]): 1.17 µg/mL | IC50 (Plasmodium falciparum [28]): 0.411 µg/mL
SMILES: O=C1C(O)=C(C(c2ccccc2O)N2CCCC2)C(=O)c2ccccc21 (stereo not given)
inhibition at 50 µg/mL (Plasmodium falciparum [25]): 72.5% | inhibition at 50 µg/mL (Plasmodium falciparum [26]): 70%

SMILES: CSC1=CC2=C(C(=O)c3ccc([C@H]4C[C@@H](O)[C@H](O)[C@@H](C)O4)c(O)c3C2=O)[C@@]2(O)C(=O)C[C@](C)(O)C[C@@]12O
IC50 (Plasmodium falciparum [38]): 0.0534 µg/mL (≈ 0.1 µM)

SMILES: O=C1c2ccccc2C(=O)c2oc(Cc3ccccc3)cc21
IC50 (Plasmodium falciparum [39]): 1500 nM
